Measured values from the supplement of paper PMC10307832.

Key:
Assay in all cases: relative viability (nuclei count vs DMSO), 5 days (fraction); higher = more cells survive
[1] = compound: COc1cccc2cc(-c3nc([C@H]4CC[C@H](C(=O)O)CC4)n4ncnc(N)c34)[nH]c12 [OSI-027] + NC(=O)Nc1cc(-c2cccc(F)c2)sc1C(=O)N[C@H]1CCCNC1 [AZD7762] (partner 0.2 µM)
Outline: (§1)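 Relative viability divides the nuclei count in treated wells by that in vehicle wells. Lung cancer cell lines were seeded in 1536-well plates, dosed by pin tool the next day, and fixed and stained after 5 days in one step with final 0.05% Triton X-100, 1% formaldehyde and 1 ug/ml Hoechst. Dosing was a single drug or a fixed anchor-drug dose plus five library-drug doses (not always all listed) in √10 steps, and values are medians of duplicate plates imaged at 4×.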

[2] = compound: CCCS(=O)(=O)Nc1ccc(F)c(C(=O)c2c[nH]c3ncc(-c4ccc(Cl)cc4)cc23)c1F [Vemurafenib] + CC(=O)c1c(C)c2cnc(Nc3ccc(N4CCNCC4)cn3)nc2n(C2CCCC2)c1=O [Palbociclib] (partner 0.5 µM)
Outline: as §1

[3] = compound: CCCS(=O)(=O)Nc1ccc(F)c(C(=O)c2c[nH]c3ncc(-c4ccc(Cl)cc4)cc23)c1F [Vemurafenib] + CCNC(=O)c1noc(-c2cc(C(C)C)c(O)cc2O)c1-c1ccc(CN2CCOCC2)cc1 [Luminespib] (partner 0.01 µM)
Outline: as §1

[4] = compound: COc1cccc2cc(-c3nc([C@H]4CC[C@H](C(=O)O)CC4)n4ncnc(N)c34)[nH]c12 [OSI-027] + Cc1nc(NC(=O)N2CCC[C@H]2C(N)=O)sc1-c1ccnc(C(C)(C)C(F)(F)F)c1 [Alpelisib] (partner 2 µM)
Outline: as §1

Cell Line	relative viability ([1]; first compound 0.01 µM)	relative viability ([1]; first compound 0.03162 µM)	relative viability ([1]; first compound 0.1 µM)	relative viability ([1]; first compound 0.3162 µM)	relative viability ([1]; first compound 1 µM)	relative viability ([2]; first compound 0.03162 µM)	relative viability ([2]; first compound 0.3162 µM)	relative viability ([2]; first compound 1 µM)	relative viability ([3]; first compound 0.03162 µM)	relative viability ([3]; first compound 0.3162 µM)	relative viability ([3]; first compound 1 µM)	relative viability ([4]; first compound 0.01 µM)	relative viability ([4]; first compound 0.03162 µM)	relative viability ([4]; first compound 0.1 µM)	relative viability ([4]; first compound 0.3162 µM)	relative viability ([4]; first compound 1 µM)	relative viability ([2]; first compound 0.1 µM)	relative viability ([3]; first compound 0.1 µM)
H3255	0.888	0.958	0.714	0.832	0.613	0.318	0.301	0.307	0.837	0.824	0.809	0.589	0.731	0.537	0.503	0.376		
NCI-H650	0.925	1.06	0.955	0.902	0.375	0.359	0.241	0.287	0.72		0.637	1.05	1.1	0.749	0.679	0.389	0.288	0.852
NCI-H2170	0.995	0.824	0.768	0.689	0.515	0.403	0.396	0.344	0.58	0.559	0.545	0.856	0.888	0.593	0.688	0.355		0.486
EKVX	0.694	0.726	0.666	0.692	0.562	0.41	0.367	0.422	0.884	0.921	0.842	0.731	0.849	0.73	0.625	0.351		
NCI-H1792	0.673	0.704	0.682	0.668	0.192	0.623		0.643	0.373	0.575	0.434	1.07	0.517	0.623	0.495	0.188	0.581	0.345
NCI-H1734	0.619	0.532	0.537	0.408	0.251	0.344	0.343	0.317	0.196	0.233	0.2	0.642	0.694	0.63	0.517	0.259	0.335	0.183
CAL-12T	0.626	0.741	0.603	0.668	0.585	0.408	0.444	0.439	0.375	0.228	0.847	1.28	0.907	1.09	0.954	0.391	0.251	0.345
NCI-H2347	0.683	0.733	0.756	0.595	0.299	0.427	0.44	0.498	0.626	0.552	0.71	1.11	0.899	0.974	0.717	0.416	0.429	0.164
NCI-H3122	1.06	1.09	0.995	0.946	0.486	0.177	0.206	0.178	0.138	0.0825	0.101	0.711	0.762	0.657	0.405	0.284	0.172	0.123
NCI-H23	0.231	0.259	0.26	0.253	0.215	0.495	0.498	0.536	0.194	0.166	0.228	0.594	0.54	0.632	0.481	0.295	0.479	0.211
ABC-1	0.886	0.764	0.728	0.555	0.602	0.744	0.767	0.545			0.779	0.98	0.921	0.903	0.628	0.537	0.57	
HCC-15	1.14	1.21	1.19	1.28	0.986	0.717	0.673	0.775	0.203	0.16	0.315	0.928	0.826	0.806	0.674	0.288	0.689	0.484
NCI-H358	0.544	0.472	0.543	0.56	0.347	0.113	0.175	0.132	0.27	0.504	0.267	0.98	0.774	0.757	0.478	0.297	0.139	
NCI-H1755	0.442	0.432	0.574	0.507	0.396	0.459	0.431	0.434	0.442	0.332	0.462	0.92	0.849	0.917	0.8	0.353	0.43	0.574
LCLC-97TM1	0.245	0.301	0.371	0.276	0.18		0.22	0.207	0.811	0.807	0.817	0.208	0.207	0.203	0.145	0.123	0.22	0.768
NCI-H2085	0.978	0.925	0.953	0.97	0.61	0.422	0.416	0.509	0.451	0.423	0.492	0.927	0.925	0.835	0.727	0.592	0.451	0.425
NCI-H647	0.402	0.558	0.362	0.314	0.348	0.375	0.404	0.394	0.157	0.138	0.212	1.15	1.26	0.914	0.699	0.376	0.434	0.165
BEN	0.698	0.604	0.435	0.464	0.463	0.489	0.421	0.491	0.382		0.274	1.02	0.695	0.67	0.447	0.319	0.492	0.302
